Measurements: US20230285576A1, “TREATMENT OF CANCER USING A CYCLODEXTRIN-CONTAINING POLYMER-TOPOISOMERASE INHIBITOR CONJUGATE AND A PARP INHIBITOR” (ELLIPSES PHARMA LTD, priority 2020, published 2023)
Read-outs that look alike come from different tables or passages of the source. Blank lines part the entries; values can stand above or below the molecule they belong to.

What was measured:
HIF-1α = HIF-1α protein levels after CRLX-101 alone or combined with antiangiogenic drugs in A2780 ovarian tumour model; format: in vivo, athymic nude mice; settings: for HIF-1Q % of Control mean + SD: CRLX-101 5 mg/kg QW × 2, n=3
Hs 766T = assay: MTS viability assay, CRLX-101 alone and with Olaparib, Hs 766T; format: cell-based; settings: Hs766T, 72 hours, Olaparib alone, read-out: IC50 relative
Description: (§1) The optimal seeding density for each cell line (DU145, Capan-1, Hs 766T, PANC-1, NUGC4, HEY, OVCAR3, OAW28 and NCI-H510A) will be determined prior to running the assay. Cells will be seeded in 50 μL media (in triplicate for each condition). Three 96 well flat bottom tissue culture plates will be required per cell line (See appendix I). Cells will be allowed to adhere overnight at 37° C., 5% CO2, 20% O2 before compound is added.
(§2) Day 5: Analysis of Proliferation • Remove plates from the incubator and perform a Cell Titre 96 Aqueous One Solution Cell Proliferation Assay (Promega #G3582) according to the manufacturers protocol. • Record absorbance at 490 nm using colorimetric plate reader.

NUGC4 = assay: MTS viability assay, CRLX-101 alone and with Olaparib, NUGC4; format: cell-based; settings: Homo sapiens, NUGC-4, 72 hours, Olaparib alone, read-out: IC50 relative
Description: as §1, §2

OVCAR3 = assay: MTS viability assay, CRLX-101 alone and with Olaparib, OVCAR3; format: cell-based; settings: Homo sapiens, OVCAR-3, 72 hours, Olaparib alone
Description: as §1, §2

PANC-1 = assay: MTS viability assay, CRLX-101 alone and with Olaparib, PANC-1; format: cell-based; settings: Homo sapiens, 72 hours, Olaparib alone
Description: as §1, §2

Capan-1 [1] = assay: MTS viability assay, CRLX-101 alone and with Olaparib, Capan-1 (schedule 1); format: cell-based; settings: Homo sapiens, 72 hours, Olaparib alone
Description: as §1, §2

NCI-H510A = assay: MTS viability assay, CRLX-101 alone and with Olaparib, NCI-H510A; format: cell-based; settings: Homo sapiens, 72 hours, Olaparib alone, read-out: IC50 relative
Description: as §1, §2

OAW28 = assay: MTS viability assay, CRLX-101 alone and with Olaparib, OAW28; format: cell-based; settings: Homo sapiens, OAW-28, 72 hours, Olaparib alone, read-out: IC50 relative
Description: as §1, §2

DU145 = assay: MTS viability assay, CRLX-101 alone and with Olaparib, DU145; format: cell-based; settings: Homo sapiens, DU-145, 72 hours, Olaparib alone
Description: as §1, §2

Capan-1 [2] = assay: MTS viability assay, CRLX-101 alone and with Olaparib, Capan-1 (schedule 2); format: cell-based; settings: Homo sapiens
Description: as §1, §2

[3] = test system: NCI-H417a small-cell lung cancer tumour; format: in vivo; settings: wild type BRCA1 and BRCA2
SUM159 tumours = assay: Tumour growth and tumour-initiating capacity in orthotopic SUM159 triple-negative breast cancer model; format: in vivo, mice; settings: pre-treatment for 2 weeks
Text: Such stimulation of CSCs could increase drug resistance and metastasis, and may be further enhanced by treatment with antiangiogenic drugs, which can increase tumour hypoxia by reducing blood flow to tumours. Inhibition of HIF-1α might therefore be beneficial to patients by reducing CSCs in tumours. […] Previously published studies have shown that Bevacizumab increases the CSC population mediated primarily by hypoxia induced up-regulation of HIF-1α. […] At the end of these 2 weeks, tumours were extracted and 100 tumour cells were implanted orthotopically into new, untreated mice.
Mice were dosed for two weeks at the dose level and frequency indicated in the legend. Tumour growth curves represent mean tumour volume and error bars represent standard deviation.

[4] = test system: carbonic anhydrase 9 (CA9); assay: CA9 immunostaining in HT-29 colorectal xenograft tumours; format: in vivo, nude mouse; settings: 7 days after a single IV treatment; CRLX-101 5 mg/kg, CPT 0.5 mg/kg
HIF-2α = assay: Time course of HIF-2α inhibition in xenograft tumours (western blot); format: in vivo, nude mouse; settings: single dose; same time period
[5] = test system: SKOV-3 human ovarian xenograft; settings: CRLX-101 9 mg/kg and/or Paclitaxel 30 mg/kg, QW × 3 IV
Text: Body weight curves are means relative to the initial body weight, with bars indicating standard deviation. Survival is indicated as the percentage of animals remaining on study because mice bearing tumours that reached a predetermined cut off size (1500 mm3) were removed from the experiment.

[6] = Mus musculus, A2780, read-out: HIF-1Q % of Control mean + SD

Molecule: Aflibercept: antiangiogenic drug
- HIF-1Q % of Control mean + SD (HIF-1α; Aflibercept study, Aflibercept 25 mg/kg Days 1, 4, 8): 235 ± 80%

- IC50 (OVCAR3; read-out: IC50 Absolute): 43.4 µM
- IC50 (OVCAR3; read-out: IC50 relative): 3.03 µM
- IC50 (PANC-1; read-out: IC50 Absolute): 79.2 µM
- IC50 (PANC-1; read-out: IC50 relative): 9.26 µM
- IC50 (NCI-H510A): 2.66 µM
- IC50 (DU145; read-out: IC50 Absolute): 93.1 µM
- IC50 (DU145; read-out: IC50 relative): 11.6 µM
Molecule: O=C(c1cc(Cc2n[nH]c(=O)c3ccccc23)ccc1F)N1CCN(C(=O)C2CC2)CC1 [Olaparib, 4-[3-(4-cyclopropanecarbonyl-piperazine-1-carbonyl)-4-fluoro-benzyl]-2H-phthalazin-1-one]
- IC50 (Hs 766T): 14.1 µM
- IC50 (NUGC4): ~11.5 µM
- IC50 (Capan-1 [1]; read-out: IC50 Absolute): 40.1 µM
- IC50 (Capan-1 [1]; read-out: IC50 relative): 5.71 µM
- IC50 (OAW28): ~8.88 µM
- IC50 (Capan-1 [2]; CAPAN-1, read-out: IC50 relative): 0.00546 µM
- IC50 (Capan-1 [2]; Capan-1 (schedule 2), Olaparib alone, read-out: IC50 Absolute): 488 µM
- Response of the model to monotherapy [3]: relatively non-responsive

Molecule: Bevacizumab: antiangiogenic drug, anti-VEGF antibody
- HIF-1Q % of Control mean + SD (HIF-1α; Bevacizumab study, Bevacizumab 5 mg/kg Days 1, 4, 8): 127 ± 18%
- Tumour-initiating capacity of 100 re-implanted tumour cells (SUM159 tumours): enhanced tumour-initiating capacity compared to control

Molecule: CC[C@@]1(O)C(=O)OCc2c1cc1n(c2=O)Cc2cc3ccccc3nc2-1 [CPT, 20(S)-Camptothecin]
- Inhibition of CA9 in tumours [4]: not

Molecule: Cc1ccc(Nc2nccc(N(C)c3ccc4c(C)n(C)nc4c3)n2)cc1S(N)(=O)=O [Pazopanib]
- HIF-1α protein level (% of control) at 150 mg/kg (HIF-1α; [6]): 226 ± 127%

Molecule: CC[C@@]1(O)C(=O)OCc2c1cc1n(c2=O)Cc2cc3c(CN(C)C)c(O)ccc3nc2-1 [Topotecan]
- Inhibition of HIF-2α, in words (HIF-2α): unable to significantly inhibit

Molecule: CC(=O)O[C@H]1C(=O)[C@@]2(C)[C@H]([C@H](OC(=O)c3ccccc3)[C@]3(O)C[C@H](OC(=O)[C@H](O)[C@@H](NC(=O)c4ccccc4)c4ccccc4)C(C)=C1C3(C)C)[C@]1(OC(C)=O)CO[C@@H]1C[C@@H]2O [Paclitaxel]
- CR (complete regressions) ([5]; N=10): 1
- PR (partial regressions) ([5]; N=10): 0
- TFS (tumour-free survivors) ([5]; N=10): 1
- Median TTE ([5]; endpoint 1500 mm3, N=10): 42.8 days
- TGD ([5]; vs control group): 18%

Molecule: CNC(=O)c1cc(Oc2ccc(NC(=O)Nc3ccc(Cl)c(C(F)(F)F)c3)c(F)c2)ccn1 [Regorafenib]
- HIF-1α protein level (% of control) at 50 mg/kg (HIF-1α; [6]): 171 ± 4%
